Test results published in publication PMC6792352, “Limited Chemical Structural Diversity Found to Modulate Thyroid Hormone Receptor in the Tox21 Chemical Library” (Environmental Health Perspectives, 2019).
Read-outs that look alike come from different tables or passages of the source.

Tests used:
[1] = Global cytotoxicity: eighteen Tox21 cell viability assays; type: cell-based
[2] = tested on: Tox21 cell viability assays (different cell types); experiment: as above; type: cell-based
[3] = in vitro; details: rat
[4] = tested on: thyroid hormone receptor (endogenous TRα and TRβ); experiment: GH3-TRE-Ag primary qHTS, luciferase reporter, agonist mode (TOX21_TR_LUC_GH3_Agonist, aeid 803); type: cell-based, rat; details: for AC50: read-out: GH3-TRE-Ag AC50; for GH3-TRE-Ag AC50 hitc: hit call from tcpl
[5] = tested on: thyroid hormone receptor (endogenous TRα and TRβ); experiment: GH3-TRE-Antag primary qHTS, luciferase reporter, antagonist mode with 1 nM T3 (TOX21_TR_LUC_GH3_Antagonist, aeid 804); type: cell-based, rat
[6] = GH3-TRE-Via cell viability, CellTiter-Fluor (TOX21_TR_LUC_GH3_Antagonist_viability, aeid 805); details: rat
[7] = biological target: T1, human RXRα (Homo sapiens, UniProt P19793); experiment: RXRa-bla-Ag mammalian one-hybrid beta-lactamase assay (TOX21_TR_RXR_BLA_Agonist_Followup_ratio, aeid 2253); type: cell-based
T1 construct: host or cells: GeneBLAzer UAS-bla HEK 293T
T1 sequence (P19793 227-458 limits assumed): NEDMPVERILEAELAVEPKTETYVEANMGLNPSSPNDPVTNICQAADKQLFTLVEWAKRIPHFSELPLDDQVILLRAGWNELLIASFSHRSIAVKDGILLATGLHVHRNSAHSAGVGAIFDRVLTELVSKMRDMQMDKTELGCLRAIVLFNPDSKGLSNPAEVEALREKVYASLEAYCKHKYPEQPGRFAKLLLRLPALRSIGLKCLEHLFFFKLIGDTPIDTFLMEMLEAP

[8] = biological target: T2, human TRβ ligand-binding domain (Homo sapiens, UniProt P10828); experiment: TRb-bla agonist mammalian one-hybrid beta-lactamase assay (TOX21_TRB_BLA_Agonist_Followup_ratio, aeid 2236); type: cell-based; set-up: host or cells: GeneBLAzer UAS-bla HEK 293T; details: for AC50: HEK 293T one-hybrid, agonist mode, read-out: TRb-bla-Ag AC50; for TRb-bla hitc: hit call from tcpl, agonist; for Emax: read-out: EMax (% of Control) trb-bla-agonist-followup-1
T2 sequence (P10828 217-461 limits assumed): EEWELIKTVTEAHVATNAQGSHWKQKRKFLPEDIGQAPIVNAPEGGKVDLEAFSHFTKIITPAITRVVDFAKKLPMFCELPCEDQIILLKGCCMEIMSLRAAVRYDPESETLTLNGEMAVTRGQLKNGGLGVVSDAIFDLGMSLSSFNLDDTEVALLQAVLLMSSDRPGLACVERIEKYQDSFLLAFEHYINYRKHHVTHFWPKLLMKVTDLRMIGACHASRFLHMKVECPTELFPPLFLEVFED

[9] = biological target: T3, TRα ligand-binding domain (Homo sapiens, UniProt P10827); experiment: TRa-coa LanthaScreen TR-FRET coactivator (SRC-2 peptide) recruitment, agonist (TOX21_TRA_COA_Agonist_Followup_ratio, aeid 2230); type: biochemical; details: for AC50: cell-free coactivator recruitment, read-out: TRa-coa-Ag AC50; for TRa-coa hitc: hit call from tcpl, agonist; for Emax: read-out: EMax (% of Control) tra-coa-agonist-followup-1
T3 construct: the receptor LBDs expressed as glutathione S-transferase (GST) fusion proteins; purchased
T3 sequence (P10827 163-410 isoform P10827-2 limits assumed, other chains not shown): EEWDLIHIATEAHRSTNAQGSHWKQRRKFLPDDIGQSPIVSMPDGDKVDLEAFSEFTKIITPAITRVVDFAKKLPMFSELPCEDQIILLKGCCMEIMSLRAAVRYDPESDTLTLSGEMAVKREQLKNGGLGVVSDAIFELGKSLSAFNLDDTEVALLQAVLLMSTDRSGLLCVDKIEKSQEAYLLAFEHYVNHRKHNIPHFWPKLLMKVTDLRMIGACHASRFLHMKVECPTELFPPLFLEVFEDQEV

[10] = tested on: GH3-TRE-Luc cell line; details: rat, 24 h
[11] = tested on: thyroid hormone receptor (TR); experiment: Classification of TR actives across characterization assays (TR-Ag / RXR-Ag; TR model binary); details: for Categorization Code: TR agonist characterization; for Classification: TR-Ag = TR agonist, RXR-Ag = RXR agonist
Procedure, shortened: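 GH3-TRE qHTS agonist, antagonist and viability modes over 8,305 compounds; 84 candidates rescreened in GH3-TRE-Ag, TRβ- and RXRα-UAS-bla HEK 293T one-hybrid assays, HEK293T viability, and TRα/TRβ coactivator recruitment. Actives classified binary after removing pharmaceuticals.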

[12] = tested on: thyroid hormone receptor (endogenous TRα and TRβ); experiment: GH3-TRE-Ag-Followup confirmation (TOX21_TR_LUC_GH3_Agonist_Followup, aeid 2226); type: cell-based, rat; details: for AC50: confirmation, agonist mode, read-out: GH3-TRE-Ag-Followup AC50; for GH3-TRE-Ag-Followup hitc: hit call from tcpl
[13] = biological target: T2, human TRβ ligand-binding domain; experiment: TRb-coa LanthaScreen TR-FRET coactivator (SRC-2 peptide) recruitment, agonist (TOX21_TRB_COA_Agonist_Followup_ratio, aeid 2244); type: biochemical; set-up: host or cells: GeneBLAzer UAS-bla HEK 293T; details: for AC50: cell-free coactivator recruitment, read-out: TRb-coa-Ag AC50; for TRb-coa hitc: hit call from tcpl, agonist; for Emax: read-out: EMax (% of Control) trb-coa-agonist-followup-1
[14] = in vitro; details: rat, gh3-tre-luc cells, AC50 (uM) modified / 1000
[15] = tested on: GH3-TRE-Luc cell line; experiment: GH3-TRE-Via cell viability, CellTiter-Fluor (TOX21_TR_LUC_GH3_Antagonist_viability, aeid 805)
[16] = median over 18 Tox21 cell viability assays, inactive set to 1,000, read-out: Global cytotoxicity AC50 median
[17] = percentage of 18 Tox21 viability assays with hitc=1
[18] = antagonist candidates, inactive samples arbitrarily set to AC50=1,000 μM
[19] = antagonist mode, 1 nM T3; read-out: GH3-TRE-Antag AC50
[20] = primary qHTS, agonist mode, 24 h, top concentration 92 μM

CCCCCCCCCCCCn1cc[n+](C)c1.[I-] [1-Dodecyl-3-methylimidazolium iodide]
AC50 [1, 16]: 41.1 µM | Active in global cytotoxicity assays (%) [2, 17]: 74.2% | AC50 [3]: 5.1 µM | AC50 [4, 18]: > 92 µM | AC50 [5, 19]: 1.33 µM

c1cc(N(CC2CO2)CC2CO2)ccc1Cc1ccc(N(CC2CO2)CC2CO2)cc1 (centres unmarked) [4,4ʹ-Methylenebis(N,N-diglycidylaniline)]
AC50 [1, 16]: 45.3 µM | Active in global cytotoxicity assays (%) [2, 17]: 59.1% | AC50 [3]: 11.1 µM | AC50 [4, 18]: > 92 µM | AC50 [5, 19]: 8.03 µM

C=C1CC[C@@H]2[C@](C)(CO)[C@H](O)CC[C@@]2(C)[C@@H]1C/C=C1/C(=O)OC[C@H]1O [Andrographolide]
AC50 [4, 18]: > 92 µM | AC50 [5, 19]: 24.6 µM | AC50 at 24 h [6]: 19.4 µM

O=C(O)CCNC(=O)c1ccccc1 [Betamipron, reference compound]
AC50 [1]: > 92 µM | GLOBAL CYTOTOXICITY cytotox.median [2]: >92 | GLOBAL CYTOTOXICITY cytotox.number_Active [2]: 0 | activity in RXRα-bla-Ag assay [7]: lack of activity | AC50 ([7]; HEK 293T one-hybrid, agonist mode, inactive set to 1,000, read-out: RXRa-bla-Ag AC50): > 92 µM | tr-followup-rxr-bla-agonist-1 hitc ([7]; hit call from tcpl): 0 | Emax ([7]; read-out: EMax (% of Control) tr-followup-rxr-bla-agonist-1): 2.9% | AC50 [8]: 14 µM | TRb-bla hitc [8]: 1 | Emax [8]: 85.5% | AC50 at 24 h [3]: > 92 µM | AC50 [9]: 10.4 µM | TRa-coa hitc [9]: 1 | Emax [9]: 120% | TR_LUC_GH3_Antagonist_viability hitc [10]: 0 | Categorization Code [11]: TR-Ag | Classification [11]: TR-Ag | EMax (% of Control) gh3-tre-agonist [4]: 72.8 % of Control | activity in GH3-TRE agonist assay [4]: concentration-dependent activity | GH3-TRE-Ag AC50 hitc [4]: 1 | AC50 [4, 20]: 11.8 µM | EMax (% of Control) gh3-tre-agonist-followup-1_agonist [12]: 90.7 % of Control | AC50 [12]: 1.68 µM | GH3-TRE-Ag-Followup hitc [12]: 1 | AC50 [13]: 11.8 µM | TRb-coa hitc [13]: 1 | Emax [13]: 30.8%

C=C(c1ccc(C(=O)O)cc1)c1cc2c(cc1C)C(C)(C)CCC2(C)C [Bexarotene, reference compound]
AC50 [1]: 23.9 µM | GLOBAL CYTOTOXICITY cytotox.median [2]: 23.9 | GLOBAL CYTOTOXICITY cytotox.number_Active [2]: 15 | AC50 [8]: > 92 µM | TRb-bla hitc [8]: 0 | Emax [8]: 11.8% | AC50 at 24 h [3]: 10.4 µM | AC50 [9]: > 92 µM | TRa-coa hitc [9]: 0 | Emax [9]: -0.4% | TR_LUC_GH3_Antagonist_viability hitc [10]: 1 | Categorization Code [11]: RXR-Ag | Classification [11]: RXR-Ag | EMax (% of Control) gh3-tre-agonist [4]: 26.0 % of Control | GH3-TRE-Ag AC50 hitc [4]: 0 | AC50 [4, 20]: 0.0077 µM | EMax (% of Control) gh3-tre-agonist-followup-1_agonist [12]: 37.1 % of Control | AC50 [12]: 0.017 µM | GH3-TRE-Ag-Followup hitc [12]: 1 | AC50 [13]: > 92 µM | TRb-coa hitc [13]: 0 | Emax [13]: -0.427%

CC(C)C[C@H](NC(=O)[C@H](CCc1ccccc1)NC(=O)CN1CCOCC1)C(=O)N[C@@H](Cc1ccccc1)C(=O)N[C@@H](CC(C)C)C(=O)[C@@]1(C)CO1 [Carfilzomib]
AC50 [1]: 0.46 µM | Active in global cytotoxicity assays (%) [2]: 64.4% | active rate in Tox21 viability/cytotoxicity assays [2]: 64% | AC50 at 24 h [3]: 0.037 µM | AC50 [4, 18]: > 92 µM | AC50 [5, 19]: 0.025 µM

COc1cccc2c1C(=O)c1c(O)c3c(c(O)c1C2=O)C[C@@](O)(C(C)=O)C[C@@H]3O[C@H]1C[C@H](N)[C@H](O)[C@H](C)O1 [Daunorubicin]
AC50 [1]: 10.5 µM | Active in global cytotoxicity assays (%) [2]: 66.1% | active rate in Tox21 viability/cytotoxicity assays [2]: two-thirds | AC50 at 24 h [3]: 1.01 µM | AC50 [4]: > 92 µM | AC50 ([5]; read-out: GH3-TRE-Antag AC50; antagonist mode, 1 nM T3): 0.7 µM

Cc1cccc(Nc2ccccc2C(=O)O)c1C [Mefenamic acid]
AC50 [1]: 50.8 µM | Active in global cytotoxicity assays (%) [2]: 4.5% | active rate in Tox21 viability/cytotoxicity assays [2]: 4.5% | AC50 at 24 h [3]: > 92 µM | CC50 at 24 h [14]: > 50 µM | AC50 [4, 18]: > 92 µM | AC50 [5, 19]: 19.5 µM

CN(C)c1ccc(/N=N/c2ccccc2C(=O)O)cc1 [Methyl red]
AC50 [1]: 48.5 µM | Active in global cytotoxicity assays (%) [2]: 48.5% | AC50 at 24 h [3]: 14.6 µM | AC50 [4, 18]: > 92 µM | AC50 [5, 19]: 8.79 µM

COC(=O)C[C@](O)(CCCC(C)(C)O)C(=O)O[C@@H]1C(OC)=C[C@]23CCCN2CCc2cc4c(cc2[C@H]13)OCO4 [Omacetaxine mepesuccinate]
AC50 [1]: 0.06 µM | Active in global cytotoxicity assays (%) [2]: 60.0% | AC50 at 24 h [3]: 0.057 µM | CC50 at 24 h [14]: 0.0816 µM | AC50 [4, 18]: > 92 µM | AC50 [5, 19]: 0.029 µM

CCCCCOc1ccc(C2SC(=O)NC2=O)cc1OCC (centres unmarked) [Risarestat, reference compound]
AC50 [1, 16]: 16.4 µM | Active in global cytotoxicity assays (%) [2, 17]: 11.9% | AC50 [4, 18]: > 92 µM | AC50 at 24 h [6]: > 92 µM | cytotoxicity in GH3 viability assay [15]: lacked cytotoxicity

O=C(O)Cc1cc(I)c(Oc2ccc(O)c(I)c2)c(I)c1 [Tiratricol, reference compound]
AC50 [1]: 27 µM | GLOBAL CYTOTOXICITY cytotox.number_Active [2]: 4 | GLOBAL CYTOTOXICITY cytotox.median ([2]; median over Tox21 viability assays): 27.0 | AC50 at 24 h [3]: > 92 µM | TR_LUC_GH3_Antagonist_viability hitc [10]: 0 | Categorization Code [11]: TR-Ag | Classification [11]: TR-Ag | TR_LUC_GH3_Agonist_EMAX (% Control) ([4]; Table S5): 104.7 % Control | GH3-TRE-Ag AC50 hitc [4]: 1 | EMax (% of Control) gh3-tre-agonist-followup-1_agonist [12]: 105.1 % of Control | AC50 [12]: 0.0002 µM | GH3-TRE-Ag-Followup hitc [12]: 1

CCCc1c(OCCCCc2nnn[nH]2)ccc(C(C)=O)c1O [Tomelukast, reference compound]
AC50 [1, 16]: 14.4 µM | Active in global cytotoxicity assays (%) [2, 17]: 9.1% | AC50 [4, 18]: > 92 µM | AC50 at 24 h [6]: > 92 µM
